Source: patent US7868026B2, “Therapeutic compounds” (Pfizer Inc., priority 2005, dated 2011)
Where two headings read alike, the source gives them in different places.

What was measured:
Format in all cases: biochemical
CYP3A4 [1] = biological target: T1, CYP3A4 (Homo sapiens, UniProt P08684); assay: Determination of compound Kiapp against recombinant CYP3A4 enzyme (BFC fluorescent substrate)
Procedure, shortened: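 Recombinant CYP3A4 (5.5 or 8 nM, with or without b5 depending on source) pre-incubated with inhibitor ≥30 min at room temperature in 100 mM sodium phosphate pH 7.0, 5 mM TCEP, 2% DMF. Reaction started with 200 uM NADPH and 5 uM BFC; initial fluorescence rates over 5 min fitted to Morrison tight-binding (non-partial) or Szedlacsek (partial) equations for Kiapp.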

CYP3A4 [2] = biological target: T1, CYP3A4; assay: Determination of IC50 against CYP3A4 by measurement of inhibition of midazolam metabolism (human liver microsomes, 1-hydroxymidazolam by LC-MS/MS); set-up: 0.1 mg/mL human liver microsomes; details: 2 μM midazolam, 0.1 mg/mL human liver microsomes
Procedure, shortened: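 Human liver microsomes (0.1 mg/mL) incubated 8 min with 2 μM midazolam and 1 mM NADPH in 100 mM potassium phosphate, pH 7.4. 1-Hydroxymidazolam quantified by LC-MS/MS (MRM) as peak area ratio to internal standard against a metabolite standard curve.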

CYP3A4 [3] = biological target: T1, CYP3A4; assay: Determination of IC50 against CYP3A4 by measurement of inhibition of testosterone metabolism (human liver microsomes, 6-β-OH-testosterone by LC-MS/MS); set-up: 0.1 mg/mL human liver microsomes; details: read-out: IC50 (Testo.)
Procedure, shortened: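 Human liver microsomes (0.1 mg/mL) incubated with 25 μM testosterone and 1 mM NADPH in 100 mM potassium phosphate, pH 7.4, for eight minutes. 6-β-OH-testosterone measured by LC-MS/MS in MRM mode against an internal standard and quantified from a metabolite standard curve.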

[4] = Baculo. enzyme preparation, read-out: Kiapp (BFC, Baculo.)
[5] = Super. enzyme preparation, read-out: Kiapp (BFC, Super.)

T1 sequence (P08684 whole entry): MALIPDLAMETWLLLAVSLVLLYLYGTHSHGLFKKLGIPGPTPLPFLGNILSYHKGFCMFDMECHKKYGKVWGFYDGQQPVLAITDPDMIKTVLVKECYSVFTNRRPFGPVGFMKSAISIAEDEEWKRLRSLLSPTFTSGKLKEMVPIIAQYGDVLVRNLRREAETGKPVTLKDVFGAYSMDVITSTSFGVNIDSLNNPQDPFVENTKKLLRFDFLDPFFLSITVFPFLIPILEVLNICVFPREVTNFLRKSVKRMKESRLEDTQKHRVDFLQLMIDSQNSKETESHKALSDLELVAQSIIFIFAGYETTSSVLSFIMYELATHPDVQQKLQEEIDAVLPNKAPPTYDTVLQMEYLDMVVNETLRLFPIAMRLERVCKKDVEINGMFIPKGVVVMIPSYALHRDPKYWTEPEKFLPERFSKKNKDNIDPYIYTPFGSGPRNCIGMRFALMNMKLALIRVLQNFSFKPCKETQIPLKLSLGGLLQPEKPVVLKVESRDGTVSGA

Ki (CYP3A4 [1]; [4]) [µM] | IC50 (CYP3A4 [2]) [µM] | IC50 (CYP3A4 [3]) [µM] | Ki (CYP3A4 [1]; [5]) [µM] | SMILES
> 1 | 0.658 | > 0.75 | – | C[C@@H]1CN(C(=O)c2ccccc2S(=O)(=O)Nc2cccnc2)C[C@H](C)O1 [Example 27, 2-{[(2R,6S)-2,6-dimethylmorpholin-4-yl]carbonyl}-N-pyridin-3-ylbenzenesulfonamide]
0.142 | 0.022 | 0.042 | 0.0316 | COc1cncc(NS(=O)(=O)c2ccccc2C(=O)NCC2CCCC2)c1 [Example 375, N-(cyclopentylmethyl)-2-{[(5-methoxypyridin-3-yl)amino]sulfonyl}benzamide]
0.108 | 0.027 | 0.032 | 0.0403 | CCOc1ccncc1NS(=O)(=O)c1ccccc1C(=O)NCCOc1ccccc1 [Example 219]
0.0842 | < 0.003 | 0.007 | 0.0334 | COc1cncc(NS(=O)(=O)c2ccccc2C(=O)NC2CCCC(C)C2)c1 (stereo not shown) [Example 202, 2-{[(5-methoxypyridin-3-yl)amino]sulfonyl}-N-(3-methylcyclohexyl)benzamide]
0.196 | 0.023 | 0.026 | 0.0351 | Cc1ccc(CNC(=O)c2ccccc2S(=O)(=O)Nc2cnccc2C)cc1F [Example 166, N-(3-fluoro-4-methylbenzyl)-2-{[(4-methylpyridin-3-yl)amino]sulfonyl}benzamide]
0.0293 | 0.009 | 0.016 | 0.008 | COc1cncc(NS(=O)(=O)c2ccccc2C(=O)NC2C3CC4CC(C3)CC2C4)c1 (stereo not shown) [Example 201, N-2-adamantyl-2-{[(5-methoxypyridin-3-yl)amino]sulfonyl}benzamide]
0.439 | 0.108 | 0.235 | 0.193 | COc1cncc(NS(=O)(=O)c2ccc(OCCCN(C)C)cc2C(=O)N(C)C(C)C)c1 [Example 248, 5-[3-(dimethylamino)propoxy]-N-isopropyl-2-{[(5-methoxypyridin-3-yl)amino]sulfonyl}-N-methylbenzamide]
0.0171 | 0.009 | 0.009 | 0.00541 | CCOc1ccncc1NS(=O)(=O)c1ccccc1C(=O)NCc1ccc(F)c(F)c1 [Example 252, N-(3,4-difluorobenzyl)-2-{[(4-ethoxypyridin-3-yl)amino]sulfonyl}benzamide]
0.844 | 0.11 | 0.247 | 0.062 | O=C(c1ccccc1S(=O)(=O)Nc1cccnc1)N1CCCCC1 [Example 67, 2-(piperidin-1-ylcarbonyl)-N-pyridin-3-ylbenzenesulfonamide]
0.0484 | 0.054 | 0.108 | 0.0889 | COc1cncc(NS(=O)(=O)c2ccc(OCCN3CCOCC3)cc2C(=O)N(C)C(C)C)c1 [Example 247, N-isopropyl-2-{[(5-methoxypyridin-3-yl)amino]sulfonyl}-N-methyl-5-(2-morpholin-4-ylethoxy)benzamide]
0.286 | 0.01 | 0.049 | 0.0396 | COc1cncc(NS(=O)(=O)c2ccccc2C(=O)N[C@@H](C)C(C)(C)C)c1 [Example 210, 2-{[(5-methoxypyridin-3-yl)amino]sulfonyl}-N-[(1S)-122-trimethylpropyl]benzamide]
0.0181 | < 0.003 | 0.015 | 0.0049 | COc1cncc(NS(=O)(=O)c2ccccc2C(=O)NC(C)(C)c2ccc(F)c(F)c2)c1 [Example 148, N-[1-(3,4-difluorophenyl)-1-methylethyl]-2-{[(5-methoxypyridin-3-yl)amino]sulfonyl}benzamide]
0.0564 | 0.011 | 0.025 | 0.0074 | Cc1cncc(NS(=O)(=O)c2ccccc2C(=O)N(C)Cc2cccc(F)c2)c1 [Example 349, N-(3-fluorobenzyl)-N-methyl-2-{[(5-methylpyridin-3-yl)amino]sulfonyl}benzamide]
> 1 | 0.129 | 0.202 | 0.163 | CCOc1ccncc1NS(=O)(=O)c1ccccc1C(=O)N(C)CCOC [Example 160, 2-{[(4-ethoxypyridin-3-yl)amino]sulfonyl}-N-(2-methoxyethyl)-N-methylbenzamide]
0.469 | 0.093 | 0.17 | 0.0999 | COCCN(C)C(=O)c1ccccc1S(=O)(=O)Nc1cncc(C)c1 [Example 162, N-(2-methoxyethyl)-N-methyl-2-{[(5-methylpyridin-3-yl)amino]sulfonyl}benzamide]
0.0849 | 0.018 | 0.07 | 0.00178 | CCCN(CC1CC1)C(=O)c1ccccc1S(=O)(=O)Nc1cncc(OC)c1 [Example 390, N-(cyclopropylmethyl)-2-{[(5-methoxypyridin-3-yl)amino]sulfonyl}-N-propylbenzamide]
0.034 | 0.032 | 0.058 | 0.0177 | CCCN(CC1CC1)C(=O)c1ccccc1S(=O)(=O)N(C)c1cncc(OC)c1 [Example 329, N-(cyclopropylmethyl)-2-{[(5-methoxypyridin-3-yl)(methyl)amino]sulfonyl}-N-propylbenzamide]
0.285 | 0.088 | 0.064 | 0.0613 | CCCN(CC1CC1)C(=O)c1ccccc1S(=O)(=O)N(C)c1cccnc1 [Example 337, N-(cyclopropylmethyl)-2-{[methyl(pyridin-3-yl)amino]sulfonyl}-N-propylbenzamide]
0.0544 | 0.011 | 0.015 | 0.0198 | COc1cncc(N(C)S(=O)(=O)c2ccccc2C(=O)NCc2cccc(F)c2)c1 [Example 322, N-(3-fluorobenzyl)-2-{[(5-methoxypyridin-3-yl)(methyl)amino]sulfonyl} benzamide]
> 1 | > 0.75 | > 0.75 | 0.224 | COc1cncc(NS(=O)(=O)c2ccccc2C(=O)NCCC2CCCN2C)c1 (stereo not shown) [Example 387, 2-{[(5-methoxypyridin-3-yl)amino]sulfonyl}N[2-(1-methylpyrrolidin-2-yl)ethyl]benzamide]
> 1 | 0.067 | 0.195 | 0.182 | COc1cncc(NS(=O)(=O)c2ccccc2C(=O)NCc2ccc(S(C)(=O)=O)cc2)c1 [Example 233, 2-{[(5-methoxypyridin-3-yl)amino]sulfonyl}-N-[4-(methylsulfonyl)benzyl]benzamide]
0.0718 | 0.007 | 0.013 | 0.0108 | COc1cncc(NS(=O)(=O)c2ccccc2C(=O)NCc2cccc(F)c2F)c1 [Example 181, N-(2,3-difluorobenzyl)-2-{[(5-methoxypyridin-3-yl)amino]sulfonyl}benzamide]
0.0272 | < 0.003 | 0.013 | 0.0098 | COc1cncc(NS(=O)(=O)c2ccccc2C(=O)NCc2c(F)cccc2Cl)c1 [Example 213, N-(2-chloro-6-fluorobenzyl)-2-{[(5-methoxypyridin-3-yl)amino]sulfonyl}benzamide]
> 1 | > 0.75 | > 0.75 | 0.216 | COc1cncc(NS(=O)(=O)c2ccccc2C(=O)NCCN2CCCCC2)c1 [Example 385, 2-{[(5-methoxypyridin-3-yl)amino]sulfonyl}N-(2-piperidin-1-ylethyl)benzamide]
0.0701 | 0.025 | 0.046 | 0.00885 | CCCCN(C)C(=O)c1ccccc1S(=O)(=O)Nc1cnccc1OCC [Example 274, N-butyl-2-{[(4-ethoxypyridin-3-yl)amino]sulfonyl}-N-methylbenzamide]
> 1 | > 0.75 | > 0.75 | 0.563 | CC(C)(C)OC(=O)N1CCC2(CC1)CN(C(=O)c1ccccc1S(=O)(=O)Nc1cccnc1)C2 [Example 11, tert-butyl 2-{2-[(pyridin-3-ylamino)sulfonyl]benzoyl}-2,7-diazaspiro[3.5]nonane-7-carboxylate]
0.151 | 0.017 | 0.024 | – | COc1cccc(CCNC(=O)c2ccccc2S(=O)(=O)Nc2cccnc2)c1 [Example 60, N-[2-(3-methoxyphenyl)ethyl]-2-[(pyridin-3-ylamino)sulfonyl]benzamide]
0.593 | 0.101 | 0.26 | 0.14 | CN(c1cccnc1)S(=O)(=O)c1ccccc1C(=O)NCC(C)(C)C [Example 359, N-(2,2-dimethylpropyl)-2-{[methyl(pyridin-3-yl)amino]sulfonyl}benzamide]
0.0977 | 0.02 | 0.028 | 0.0168 | Cc1cncc(NS(=O)(=O)c2ccccc2C(=O)N(C)Cc2ccccc2)c1 [Example 335, N-benzyl-N-methyl-2-{[(5-methylpyridin-3-yl)amino]sulfonyl}benzamide]
0.0591 | 0.02 | 0.031 | 0.0089 | COc1cncc(NS(=O)(=O)c2ccccc2C(=O)N2CCC(c3ccccc3)CC2)c1 [Example 231, N-(5-methoxypyridin-3-yl)-2-[(4-phenylpiperidin-1-yl)carbonyl]benzenesulfonamide]
